Measured values reported in patent US10414721B1, “Inhibitor of endocannabinoid cellular reuptake” (University of Bern, priority 2018, dated 2019).

How the values were obtained:
AEA uptake in U937 cells = experiment: AEA uptake inhibition in U937 cells; format: cell-based
Protocol: Based on the natural product (2E,4E)-N-isobutylamidedodeca-2,4-dienamide from the medicinal plant E. purpurea as a starting point, a library of 634 of analogs and derivatives with varying alkyl chain length was synthesized, and structure of the head group moiety analyzed. All new derivatives were tested for AEA uptake inhibition in U937 cells using a high-content screening assay.
(§1) All radioactivity-based AEA and 2-AG uptake and release assays performed in U937, and HMC-1 cells were carried out using two different assay formats as previously reported. AEA and 2-AG uptake assay in Neuro2a and primary mouse cortical neurons were performed with a different method disclosed in Chicca 2017.

BALB/c male mice [1] = experiment: Tetrad test after oral administration; format: in vivo, mouse; conditions: 50 mg/kg p.o.
Protocol: The tetrad test was performed in the following order: rectal temperature, catalepsy, locomotion and analgesia. Rectal temperature was measured before (basal) and 1 h post gavage administration by using a thermocouple probe (Physitemp Instruments Inc., USA) and results were reported as the difference (Δ) between both temperatures. The bar test was used to evaluated catalepsy by placing the mouse in an imposed position with both forelimbs resting on a bar of 4 cm high; the end point of catalepsy was considered when both front limbs were removed or remained over 120 s. Locomotor activity was determined by placing the mouse on a rotarod (Erweka, Germany) at 4 rpm, the latency to fall was measured with a cut-off time of 120 s. Each mouse was previously trained to walk over the rotarod for at least 120 s. Catalepsy and locomotion were measured in three trials. Analgesia was evaluated with the hot plate test, each mouse was placed in a 54-56° C. hot plate (Thermo Scientific, USA) with a Plexiglas cylinder, the latency to first nociceptive response (paw lick or foot shake) was measured.

[2] = test system: AEA uptake in primary mouse cortical neurons; experiment: AEA uptake in primary mouse cortical neurons; format: cell-based; conditions: Cortical neurone
Protocol: as §1

C57BL6/N mice = experiment: Holeboard (HB) test; format: in vivo, mouse; conditions: 3 mg/kg, 1 h post injection
Protocol: (§2) WOBE437 was initially assessed in a battery of four individual tests typically associated with CB1 receptor activation in mice (nociception, locomotion, body temperature and cataleptic behavior), collectively referred to as the “tetrad”. Dose-response experiments identified 10 mg/kg as the lowest dose to elicit a moderate but complete tetrad in BALB/c mice upon intraperitoneal (i.p.) administration (FIGS. 3A-D). […] To assess whether the WOBE437-induced effects were CB1 receptor-mediated, mice were pre-treated with the selective antagonist/inverse agonist rimonabant (SR1). […] These experiments provided a proof-of-concept for the mechanism of action of WOBE437 as a novel “indirect CB1 receptor agonist”. In subsequent studies, the effects of WOBE437 in pain, inflammatory and anxiety models were investigated. […] Both effects were reversed by SR1.
(§3) WOBE437 and RX-055 were tested in independent laboratories, in different mouse strains and in multiple (behavioral) models for cannabimimetic, analgesic, anti-inflammatory and anxiolytic-effects in wild-type and phenotypical CB1-KO mice as described in Chicca 2017.

ABHD6 = target: T1, ABHD6 (Mus musculus, UniProt Q8R2Y0); experiment: ABHD6 activity (ABPP and radioactivity-based hydrolytic assays); format: biochemical; conditions: ABPP in mouse brain homogenate and hydrolytic assays
T1 construct: membrane preparations obtained from mouse brains; from tissue; host or cells: mouse brain membranes
Protocol: ABPP experiments were performed using membrane preparations obtained from mouse brains as described earlier.
FAAH, ABHDs, MAGL and COX-2 activity assays were performed using cell homogenates, human recombinant enzymes and mouse, rat and pig brain homogenates as previously described.

CB1 receptor = CB1 receptor (Homo sapiens, UniProt P21554); experiment: CB1 receptor binding assay
Protocol: CB1 and CB2 receptor binding assays [^35S]GTPγS assays were performed as previously described. WOBE437 was profiled in more detail in an extended CNS adverse drug reaction screening panel (CEREP).

[3] = Cell penetration (intracellular LC-MS/MS and PAMPA); format: in vitro ADME
Text: Cell penetration was further investigated by quantifying intracellular levels of WOBE437 by LC-MS/MS and measuring its physicochemical distribution in the parallel artificial membrane permeability assay (PAMPA).

BALB/c male mice [4] = experiment: Endocannabinoid and NAE levels 1 h after oral administration; format: in vivo, mouse; conditions: for 2-AG level in plasma: control 16.1±2.9
Protocol: Male C57BL6/J or male BALB/c mice were orally administered by gavage with 10, 25, 50 or 100 mg/kg of WOBE437 (100 μL; olive oil and ethanol 8:2) using a metal feeding needle (20G, Kent Scientific, USA). The mice were sacrificed by decapitation after gavage administration. Brain, blood, liver, kidney and spleen were collected for the LC-MS/MS analyses. All tissues were briefly washed with ice cold PBS and immediately snap-frozen and stored at −80° C. Whole brain samples were dissected between the hemispheres. Blood samples were immediately centrifuged to obtain plasma, which was stored at −80° C.
Samples extractions and LC-MS/MS measurements were performed as previously described (Chicca et al., 2017). Briefly, tissues were weighted and transferred in to extraction tubes containing three steel beads and 0.1 M formic acid. Tissues were homogenized and rapidly transferred to glass tubes containing 1.5 mL of ethyl acetate:hexane (9:1) 0.1% formic acid and internal standards (ISs). Samples were centrifuged and the organic phase was recovered. After evaporation, the extracts were reconstituted in 200 μL of ACN:ddH2O (8:2). 10 μL of the solution were injected in the LC-MS/MS system using the same LC and ionization protocols as described (Chicca et al., 2017).

mice = experiment: Formalin test; format: in vivo, mouse; conditions: comparable to indomethacin (5 mg/kg)
Protocol: as §2, §3

[5] = test system: 2-AG uptake in U937 cells; experiment: 2-AG uptake inhibition in U937 cells; format: cell-based
Protocol: as §1

BALB/c mice = experiment: LPS-induced endotoxemia; format: in vivo, mouse; conditions: 5 and 10 mg/kg
Protocol: as §2, §3

T1 sequence (Q8R2Y0 whole entry): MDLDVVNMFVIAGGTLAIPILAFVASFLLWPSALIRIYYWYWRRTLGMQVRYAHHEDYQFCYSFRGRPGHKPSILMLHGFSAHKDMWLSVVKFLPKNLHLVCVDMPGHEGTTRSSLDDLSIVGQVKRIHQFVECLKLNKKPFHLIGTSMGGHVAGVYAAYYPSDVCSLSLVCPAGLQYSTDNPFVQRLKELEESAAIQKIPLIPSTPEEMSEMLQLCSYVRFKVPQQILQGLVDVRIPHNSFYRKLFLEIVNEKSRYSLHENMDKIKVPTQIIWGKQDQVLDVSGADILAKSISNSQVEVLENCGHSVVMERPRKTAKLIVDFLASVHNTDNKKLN
Sequence of CB1 receptor (P21554 whole entry): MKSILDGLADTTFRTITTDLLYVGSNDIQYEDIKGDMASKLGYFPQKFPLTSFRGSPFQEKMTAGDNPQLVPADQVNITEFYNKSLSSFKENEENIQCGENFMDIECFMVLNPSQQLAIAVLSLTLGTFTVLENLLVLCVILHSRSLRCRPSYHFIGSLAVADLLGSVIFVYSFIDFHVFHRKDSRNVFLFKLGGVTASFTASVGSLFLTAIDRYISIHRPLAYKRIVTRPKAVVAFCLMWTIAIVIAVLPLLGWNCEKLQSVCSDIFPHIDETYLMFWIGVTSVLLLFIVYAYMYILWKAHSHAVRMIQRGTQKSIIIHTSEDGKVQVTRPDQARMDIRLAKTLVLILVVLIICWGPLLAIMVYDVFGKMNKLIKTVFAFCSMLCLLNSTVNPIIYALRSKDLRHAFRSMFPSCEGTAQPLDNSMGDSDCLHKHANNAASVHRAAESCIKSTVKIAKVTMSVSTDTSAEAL

CCCCCCC/C=C/C=C/C(=O)NCCc1ccc(OC)c(OC)c1 [WOBE437, (2E,4E)-N-[2-(3,4-Dimethoxyphenyl)ethyl]dodeca-2,4-dienamide]
residual AEA and 2-AG reuptake upon treatment (AEA uptake in U937 cells): 20-30%
selectivity for AEA uptake over FAAH / AEA hydrolysis (AEA uptake in U937 cells): 1000 fold
IC50 (AEA uptake in U937 cells; Homo sapiens, U-937, U937 cells, 100 nM total AEA): 10 ± 8 nM
Hill slope, AEA uptake (AEA uptake in U937 cells; U937 cells, multiphase AEA uptake assay): −0.715
type of AEA uptake inhibition (Michaelis-Menten analysis) (AEA uptake in U937 cells; intact U937 cells): competitive
reversibility of AEA uptake inhibition (AEA uptake in U937 cells; rapid dilution assay): reversible
antinociception in tetrad (BALB/c male mice [1]): significant antinociception
body temperature, catalepsy or motor coordination vs vehicle (BALB/c male mice [1]): No statistical differences
latency of catalepsy (BALB/c male mice [1]; 1 h, control 5.9±5.4): 10.5 ± 10.6 s
change in body temperature (BALB/c male mice [1]; 1 h, control +0.1±0.8): −0.8±0.8 °C
inhibition at 1 µM ([2]; 2-7 min of incubation): 50%
inhibition at 1 µM ([2]; 10-20 min of incubation): 20 to 35%
head dipping frequency (C57BL6/N mice): significantly increased
inhibition of ABHD6 (ABHD6): did not inhibit
Ki (CB1 receptor): 17000 nM
cell membrane penetration [3]: does not significantly penetrate cell membranes
2-AG level in plasma (BALB/c male mice [4]; 25 mg/kg p.o.): 21.4 ± 4.5 pmol/mL
reduction of AEA concentration in plasma (BALB/c male mice [4]; 50 mg/kg p.o.): 23%
2-AG levels in somatosensory cortex (BALB/c male mice [4]; 50 mg/kg p.o., 1 h): no changes
AEA levels in somatosensory cortex (BALB/c male mice [4]; 50 mg/kg p.o., 1 h): significant increase
AEA concentration in plasma (BALB/c male mice [4]; 50 mg/kg p.o., control 2.6±0.2): 2.2 ± 0.3 pmol/mL
2-AG concentration in total brain (BALB/c male mice [4]; 50 mg/kg p.o., control 10.8±2.6): 13.9 ± 2.6 nmol/g
2-AG level in plasma (BALB/c male mice [4]; 50 mg/kg p.o.): 22.6 ± 4.8 pmol/mL
2-AG level in plasma (BALB/c male mice [4]; 100 mg/kg p.o.): 23.8 ± 5.7 pmol/mL
increase of 2-AG levels in plasma (BALB/c male mice [4]; 25, 50 and 100 mg/kg p.o.): 40%
AEA and 2-AG levels in total brain (BALB/c male mice [4]; p.o., 1 h): tendency to increase
levels of N-acylethanolamines other than AEA (BALB/c male mice [4]; somatosensory cortex, total brain or plasma): No changes
inflammatory pain and paw thickness (mice): reduced inflammatory pain and paw thickness
Hill slope, 2-AG uptake [5]: −0.973
IC50 ([5]; Homo sapiens, U-937, 1 μM total 2-AG): 283 ± 121 nM
effect in LPS-induced endotoxemia (BALB/c mice): protective effects
